Experimental data: patent publication US9199946B2, “Pyrimidinone carboxamide inhibitors of endothelial lipase” (BRISTOL-MYERS SQUIBB COMPANY, priority 2012, dated 2015)

Target: T1, Endothelial lipase (EL) (Homo sapiens, UniProt Q9Y5X9)
T1 construct: HT-1080 cells, which were transformed by RAGE technology (Athersys) to overexpress endogenous EL; endogenous in cells; conditioned medium used as the enzyme source
T1 sequence (Q9Y5X9 21-500): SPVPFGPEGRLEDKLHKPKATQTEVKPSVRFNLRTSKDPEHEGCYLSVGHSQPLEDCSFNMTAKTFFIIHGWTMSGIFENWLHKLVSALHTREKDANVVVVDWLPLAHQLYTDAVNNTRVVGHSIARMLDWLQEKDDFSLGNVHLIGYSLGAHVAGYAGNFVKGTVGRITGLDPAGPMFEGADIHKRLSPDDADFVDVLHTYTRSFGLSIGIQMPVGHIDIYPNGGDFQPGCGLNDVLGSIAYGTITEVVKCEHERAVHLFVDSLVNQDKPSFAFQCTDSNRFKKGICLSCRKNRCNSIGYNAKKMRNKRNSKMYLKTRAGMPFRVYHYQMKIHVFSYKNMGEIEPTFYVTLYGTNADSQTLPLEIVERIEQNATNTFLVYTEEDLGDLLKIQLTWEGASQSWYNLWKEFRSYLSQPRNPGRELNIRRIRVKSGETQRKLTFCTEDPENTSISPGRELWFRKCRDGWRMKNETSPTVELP
Assay: Endothelial lipase (EL) enzymatic assay with fluorescent substrate A10070 in DMPG vesicles
Format: biochemical
Details: conditioned media from HT-1080 cells overexpressing endogenous EL; 20 min preincubation at 37° C.; read-out: EL IC50
Method in brief: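 The enzyme source was conditioned medium from HT-1080 cells engineered to overexpress endogenous EL. It was preincubated with compound for 20 min at 37 °C in 50 mM HEPES pH 8.0, 50 mM NaCl, 1 mM CaCl2. Reactions started with DMPG vesicles carrying FRET substrate A10070 (mole fraction 0.05). The rate was taken from the linear slope of fluorescence (ex 488/em 530 nm) over 10 min.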

SMILES	IC50
Nc1c(C(=O)NC2CCC(c3cccc(OCc4ccccc4)c3)C2)[nH]c(=O)[nH]c1=O (centres unmarked) [Example 158, 5-amino-N-(3-(3-(benzyloxy)phenyl)cyclopentyl)-2,6-dioxo-1,2,3,6-tetrahydropyrimidine-4-carboxamide]	0.525 µM
Nc1c(C(=O)NC2CCCC(c3cnn(Cc4ccccc4)c3)C2)[nH]c(=O)[nH]c1=O (centres unmarked) [Example 127, 5-amino-N-(3-(1-benzyl-1H-pyrazol-4-yl)cyclohexyl)-2,6-dioxo-1,2,3,6-tetrahydropyrimidine-4-carboxamide]	0.03 µM
Nc1c(C(=O)N[C@H]2CC[C@@H](NC(=O)c3nc4ccccc4s3)CC2)[nH]c(=O)[nH]c1=O [Example 117, N-(cis-4-(5-amino-2,6-dioxo-1,2,3,6-tetrahydropyrimidine-4-carboxamido)cyclohexyl)benzo[d] thiazole-2-carboxamide]	1.19 µM

Same assay, conditions: range observed in the EL assay; read-out: EL IC50 values

SMILES	IC50
CC(C)(C)COc1ccc(C2CCC(NC(=O)c3[nH]c(=O)[nH]c(=O)c3N)C2)cc1 (centres unmarked) [Example 143, 5-amino-N-(3-(4-(neopentyloxy)phenyl)cyclopentyl)-2,6-dioxo-1,2,3,6-tetrahydropyrimidine-4-carboxamide]	≤ 10 µM
Nc1c(C(=O)N[C@@H]2CCc3cc(Br)ccc32)[nH]c(=O)[nH]c1=O [Example 65, (R)-5-amino-N-(5-bromo-2,3-dihydro-1H-inden-1-yl)-2,6-dioxo-1,2,3,6-tetrahydropyrimidine-4-carboxamide]	≤ 10 µM
COc1ccc2c(c1OC)CCC(NC(=O)c1[nH]c(=O)[nH]c(=O)c1N)C2 (centres unmarked) [Example 108, 5-amino-N-(5,6-dimethoxy-1,2,3,4-tetrahydronaphthalen-2-yl)-2,6-dioxo-1,2,3,6-tetrahydropyrimidine-4-carboxamide]	≤ 10 µM
Nc1c(C(=O)N[C@H]2CCCc3cc(OCC(F)(F)F)ccc32)[nH]c(=O)[nH]c1=O [Example 34, (S)-5-amino-2,6-dioxo-N-(6-(2,2,2-trifluoroethoxy)-1,2,3,4-tetrahydronaphthalen-1-yl)-1,2,3,6-tetrahydropyrimidine-4-carboxamide]	≤ 10 µM
CO[C@]1(c2ccc(F)cc2)CC[C@@H](NC(=O)c2[nH]c(=O)[nH]c(=O)c2N)CC1 [Example 4, 5-amino-N-(cis-4-(4-fluorophenyl)-4-methoxycyclohexyl)-2,6-dioxo-1,2,3,6-tetrahydropyrimidine-4-carboxamide]	≤ 10 µM
Nc1c(C(=O)N[C@@H]2CCc3c(Cl)cc(Cl)cc32)[nH]c(=O)[nH]c1=O [Example 5, (R)-5-amino-N-(4,6-dichloro-2,3-dihydro-1H-inden-1-yl)-2,6-dioxo-1,2,3,6-tetrahydropyrimidine-4-carboxamide]	≤ 10 µM
CC(C)(C)OC(=O)N1CCC(NC(=O)c2[nH]c(=O)[nH]c(=O)c2N)C1 (centres unmarked) [Example 62, tert-butyl 3-(5-amino-2,6-dioxo-1,2,3,6-tetrahydropyrimidine-4-carboxamido)pyrrolidine-1-carboxylate]	≤ 10 µM
Nc1c(C(=O)NC2CCC(n3cc(-c4ccc(Br)cc4)cn3)C2)[nH]c(=O)[nH]c1=O (centres unmarked) [Example 140, 5-amino-N-(3-(4-(4-bromophenyl)-1H-pyrazol-1-yl)cyclopentyl)-2,6-dioxo-1,2,3,6-tetrahydropyrimidine-4-carboxamide]	≤ 10 µM
COc1cccc2c1CCCC2NC(=O)c1[nH]c(=O)[nH]c(=O)c1N (single isomer, unassigned; enantiomer a) [Example 198, 5-amino-N-(5-methoxy-1,2,3,4-tetrahydronaphthalen-1-yl)-2,6-dioxo 1,2,3,6-tetrahydropyrimidine-4-carboxamide (Enantiomer A)]	≤ 10 µM
N#C[C@]1(c2ccc(Cl)c(Cl)c2)CC[C@@H](NC(=O)c2[nH]c(=O)[nH]c(=O)c2N)CC1 [Example 7, 5-amino-N-(cis-4-cyano-4-(3,4-dichlorophenyl)cyclohexyl)-2,6-dioxo-1,2,3,6-tetrahydropyrimidine-4-carboxamide]	≤ 10 µM

Now from value to molecule:

IC50	SMILES
≤ 10 µM	Nc1c(C(=O)N[C@H]2CCCc3c(OCc4ccccc4)cccc32)[nH]c(=O)[nH]c1=O [Example 92, (S)-5-amino-N-(5-(benzyloxy)-1,2,3,4-tetrahydronaphthalen-1-yl)-2,6-dioxo-1,2,3,6-tetrahydropyrimidine-4-carboxamide]
≤ 10 µM	Nc1c(C(=O)N[C@H]2CC[C@@H](NC(=O)c3cccc(OCc4ccccc4)c3)CC2)[nH]c(=O)[nH]c1=O [Example 122, 5-amino-N-(cis-4-(3-(benzyloxy)benzamido)cyclohexyl)-2,6-dioxo-1,2,3,6-tetrahydropyrimidine-4-carboxamide]
≤ 10 µM	Nc1c(C(=O)N[C@@H]2CC[C@@H](c3ccccc3)c3ccccc32)[nH]c(=O)[nH]c1=O [Example 20, 5-amino-2,6-dioxo-N-((1R,4S)-4-phenyl-1,2,3,4-tetrahydronaphthalen-1-yl)-1,2,3,6-tetrahydropyrimidine-4-carboxamide]
≤ 10 µM	O=C(N[C@H]1CC[C@@H](C(=O)N[C@@H]2CCCc3c(OCc4ccccc4)cccc32)C1)c1[nH]c(=O)[nH]c(=O)c1O [Example 263, N-((1S,3R)-3-((R)-5-(benzyloxy)-1,2,3,4-tetrahydronaphthalen-1-ylcarbamoyl)cyclopentyl)-5-hydroxy-2,6-dioxo-1,2,3,6-tetrahydropyrimidine-4-carboxamide]
≤ 10 µM	Nc1c(C(=O)N[C@H]2CC[C@@H](NC(=O)Nc3ccccc3)CC2)[nH]c(=O)[nH]c1=O [Example 118, 5-amino-2,6-dioxo-N-(cis-4-(3-phenylureido)cyclohexyl)-1,2,3,6-tetrahydropyrimidine-4-carboxamide]
≤ 10 µM	COc1ccccc1C1CCC(NC(=O)c2[nH]c(=O)[nH]c(=O)c2N)C1 (centres unmarked) [Example 141, 5-amino-N-(3-(2-methoxyphenyl)cyclopentyl)-2,6-dioxo-1,2,3,6-tetrahydropyrimidine-4-carboxamide]
≤ 10 µM	Nc1c(C(=O)N[C@@H]2CCc3ccc(OCc4ccccc4)cc32)[nH]c(=O)[nH]c1=O [Example 91, (R)-5-amino-N-(6-(benzyloxy)-2,3-dihydro-1H-inden-1-yl)-2,6-dioxo-1,2,3,6-tetrahydropyrimidine-4-carboxamide]
≤ 10 µM	Nc1c(C(=O)N[C@H]2CC[C@@H](c3ccc(OCc4ccccc4)cc3)CC2)[nH]c(=O)[nH]c1=O [Example 114, 5-amino-N-(cis-4-(4-(benzyloxy)phenyl)cyclohexyl)-2,6-dioxo-1,2,3,6-tetrahydropyrimidine-4-carboxamide]
≤ 10 µM	Nc1c(C(=O)N[C@@H]2CCCc3cc(NC(=O)c4ccccc4)ccc32)[nH]c(=O)[nH]c1=O [Example 105, (R)-5-amino-N-(6-benzamido-1,2,3,4-tetrahydronaphthalen-1-yl)-2,6-dioxo-1,2,3,6-tetrahydropyrimidine-4-carboxamide]
≤ 10 µM	O=C(N[C@H]1CC[C@@H](c2ccccc2)CC1)c1[nH]c(=O)[nH]c(=O)c1NCc1cc(F)cc(C(F)(F)F)c1 [Example 236, 5-(3-fluoro-5-(trifluoromethyl)benzylamino)-2,6-dioxo-N-((1s,4s)-4-phenylcyclohexyl)-1,2,3,6-tetrahydropyrimidine-4-carboxamide]
≤ 10 µM	Nc1c(C(=O)NC2CCCC(c3cnn(Cc4ccccc4)c3)C2)[nH]c(=O)[nH]c1=O (centres unmarked) [Example 127, 5-amino-N-(3-(1-benzyl-1H-pyrazol-4-yl)cyclohexyl)-2,6-dioxo-1,2,3,6-tetrahydropyrimidine-4-carboxamide]
≤ 10 µM	CCn1c(=O)[nH]c(C(=O)N[C@H]2CC[C@@H](c3ccccc3)CC2)c(O)c1=O [Example 239, 1-Ethyl-5-hydroxy-2,6-dioxo-N-(cis-4-phenylcyclohexyl)-1,2,3,6-tetrahydropyrimidine-4-carboxamide]
≤ 10 µM	Nc1c(C(=O)N[C@H]2CC[C@@H](NC(=O)c3nc4ccccc4s3)CC2)[nH]c(=O)[nH]c1=O [Example 117, N-(cis-4-(5-amino-2,6-dioxo-1,2,3,6-tetrahydropyrimidine-4-carboxamido)cyclohexyl)benzo[d] thiazole-2-carboxamide]
